Values after ≈ are worked out from the molar mass of the structure shown. Where two headings read alike, the source gives them in different places. Numbered stars: 1 amine (or outer) side, 2 acyl side, 3 side chain; on linkers, the order of the positions; unused ones are H or OH. Bridge positions count the residues as written; N and C are the ends. Square brackets hold non-standard residues; d marks the D form. Peptide text beside a SMILES is read from it. * marks the point of attachment. Orn(4R-OH,5R-OH) = O=C([C@H](C[C@@H](O)[C@@H](O)N[*:3])N[*:1])[*:2]; hTyr(3S-OH,4S-OH) = N[C@H](C(=O)O)[C@H](O)[C@@H](O)c1ccc(O)cc1; Pro(3S-OH,4S-Me) = C[C@H]1CN[C@H](C(=O)O)[C@H]1O; Benzoyl(4-octyloxy) = CCCCCCCCOc1ccc(C(=O)*)cc1; Hyp = O=C(O)[C@@H]1C[C@@H](O)CN1
Assays:
C. albicans SC5314 [1] = assay: MIC versus reference Candida strains (broth micro dilution); type: cell-based
[2] = system: C. parapsilosis ATCC-22019; assay: as above; conditions: Lodderomyces parapsilosis, ATCC22019
C. albicans ATCC-24433 = assay: as above; conditions: Candida albicans, ATCC24433
[3] = system: C. parapsilosis ATCC-90018; assay: as above; conditions: Lodderomyces parapsilosis, ATCC90018
C. glabrata ATCC-90030 = assay: as above; conditions: Nakaseomyces glabratus, ATCC90030
C. krusei ATCC-6258 = assay: as above; conditions: Pichia kudriavzevii, ATCC6258
C. albicans ATCC-90028 = assay: as above; conditions: Candida albicans, ATCC90028
C. tropicalis ATCC-750 = assay: as above; conditions: Candida tropicalis, ATCC750
(1,3)β-Glucan Synthase = assay: Inhibition of fungal cell wall synthesis enzymes; type: biochemical; conditions: 20.6 μg/ml
Description: (§1) Specific inhibitors of each enzyme served as positive controls (Cilofungin, a β-glucan synthase inhibitor and nikkomycin Z, a chitin synthase inhibitor).

Candida albicans = assay: In vitro fungicidal activity vs. Candida albicans; conditions: Candida albicans
S. cerevisiae 2229-5C = assay: IC50 (50% growth inhibition) of diyne compounds; type: cell-based; conditions: strain 2229-5C; for IC50: Saccharomyces cerevisiae, 22295C; for value in brackets after the IC50 bound (not explained): at the bound concentration
Experimental: (§2) The inhibition is partly measured by minimum inhibitory and minimum fungicidal concentration (MIC and MFC, respectively) and partly as IC50 (i.e. concentration required for 50% inhibition).
(§3) IC50 against two different S. cerevisiae strains and two different C. albicans strains by a number of diyne compounds was determined and the results are shown in Table 17.

C. albicans SC5314 [4] = assay: IC50 (50% growth inhibition) of diyne compounds; type: cell-based; conditions: Candida albicans; strain SC5314
Experimental: as §2, §3

C. albicans DSY1024 = assay: IC50 (50% growth inhibition) of diyne compounds; type: cell-based; conditions: Candida albicans, DSY1024, read-out: C. albicans IC50
Experimental: as §2, §3

S. cerevisiae AD1-9 = assay: IC50 (50% growth inhibition) of diyne compounds; type: cell-based; conditions: strain AD1-9; for IC50: Saccharomyces cerevisiae, AD19
Experimental: as §2, §3

M. gypseum = assay: In vitro antifungal activity vs. dermatophytes (MIC/MFC); type: cell-based; conditions: Nannizzia gypsea, 96 h; M. gypseum (n = 1); 35° C., 4 days
T. rubrum = assay: as above; type: cell-based; conditions: Trichophyton rubrum, 96 h; T. rubrum (n = 15); 35° C., 4 days
M. gallinae = assay: as above; type: cell-based; conditions: 96 h; M. gallinae (n = 1); 35° C., 4 days
ergosterol biosynthesis = assay: 13C-acetate incorporation into ergosterol; type: cell-based, Candida albicans; conditions: drug at about its MIC, added after the first 15 minutes
Epidermophyton floccosum = assay: In vitro antifungal activity vs. dermatophytes (MIC/MFC); type: cell-based; conditions: 96 h; Epidermophyton floccosum (n = 15); 35° C., 4 days
M. vanbreuseghemii = assay: as above; type: cell-based; conditions: 96 h; M. vanbreuseghemii (n = 1); 35° C., 4 days
Trichophyton tonsurans = assay: as above; type: cell-based; conditions: 96 h; Trichophyton tonsurans (n = 15); 35° C., 4 days
Microsporum canis = assay: as above; type: cell-based; conditions: 96 h; Microsporum canis (n = 15); 35° C., 4 days
T. terrestre = assay: as above; type: cell-based; conditions: 96 h; T. terrestre (n = 1); 35° C., 4 days
T. mentagrophytes = assay: as above; type: cell-based; conditions: Trichophyton mentagrophytes, 96 h; T. mentagrophytes (n = 15); 35° C., 4 days
all dermatophyte strains = assay: MIC and MFC range over all dermatophyte strains tested; type: cell-based, dermatophytes; conditions: Table 14 strains
[5] = system: T. rubrum, Terbinafine resistant isolates; assay: In vitro antifungal activity vs. dermatophytes (MIC/MFC); type: cell-based; conditions: Trichophyton rubrum, 96 h; T. rubrum (TERB-resistant) (n = 9); 35° C., 4 days
M. cookie = assay: as above; type: cell-based; conditions: 96 h; M. cookie (n = 1); 35° C., 4 days
Chitin Synthase = assay: Inhibition of fungal cell wall synthesis enzymes; type: biochemical; conditions: 9.9 μg/ml
Description: as §1

OLE1 = OLE1 expression by real time PCR; type: cell-based, S. cerevisiae; conditions: 10 μg/ml oleic acid alone
Experimental: The expression of OLE1 was determined by real time PCR 10, 60, 120 and 240 min after compound addition (Knechtle, P. and Greve, K., 2009). OLE1 transcript levels were calibrated to the expression of the tubulin gene (TUB1) and normalized to the OLE1 expression at 10 min without compound addition (FIG. 17(a)).
The expression of the OLE1 gene was determined by real time PCR 10, 60, 120 and 240 min for the conditions a.-e., as indicated in Table 3 above. OLE1 transcript levels were calibrated to the expression of the tubulin gene (TUB1) and normalized to the OLE1 expression at 10 min without compound addition. See FIG. 17a showing time dependent expressions of OLE1 in response to compound IV″. Conditions a.-e. are listed in Table 3 above, numbers indicate time intervals in minutes. Expressions of OLE1 are given as multiples of the expression at 10 min, condition a. […] 10 μg/ml oleic acid compensated for the OLE1 expression increase caused by 1 μg/ml compound IV alone. Compound IV″ dependent up-regulation of OLE1 expression thus confirms that compound IV″ is acting as an inhibitor of the Ole1 protein. The antagonistic effect of oleic acid found in the susceptibility assays, is reflected mechanistically in this experiment by a down-regulation of the target Ole1 protein through oleic acid.

S. cerevisiae = assay: Doubling times of S. cerevisiae; type: cell-based; conditions: 10 μg/ml oleic acid alone
Experimental: S. cerevisiae was cultured in the presence of 1 and 10 μg/ml of the potassium salt, 10 μg/ml oleic acid and 1 μg/ml of the potassium salt combined with 10 μg/ml oleic acid.
When S. cerevisiae was cultured in the presence of 1 and 10 μg/ml compound IV″, the doubling times increased to 2.4 h and 4.2 h, respectively, compared to 2 h for the untreated control. The addition of 10 μg/ml oleic acid, sodium salt, to 1 μg/ml compound IV″ reversed the doubling time to 2 h as observed for the untreated control or 10 μg/ml oleic acid, sodium salt alone.

O=C(O)CCCCCCCc1ccccc1C#CC#Cc1ccco1 [VII″, 8-(2-(4-(furan-2-yl)buta-1,3-diynyl)phenyl)octanoic acid]
MIC (C. albicans SC5314 [1]): > 10.2 µg/mL | MIC [2]: > 10.2 µg/mL | MIC (C. albicans ATCC-24433): > 10.2 µg/mL | MIC [3]: > 10.2 µg/mL | MIC (C. glabrata ATCC-90030): > 10.2 µg/mL | MIC (C. krusei ATCC-6258): > 10.2 µg/mL | MIC (C. albicans ATCC-90028): > 10.2 µg/mL | MIC (C. tropicalis ATCC-750): > 10.2 µg/mL

CCCCCCCCOc1ccc(C(=O)N[C@H]2C[C@@H](O)[C@@H](O)NC(=O)[C@@H]3[C@@H](O)[C@@H](C)CN3C(=O)[C@H]([C@@H](C)O)NC(=O)[C@H]([C@H](O)[C@@H](O)c3ccc(O)cc3)NC(=O)[C@@H]3C[C@@H](O)CN3C(=O)[C@H]([C@@H](C)O)NC2=O)cc1 [Cilofungin, reference compound] ({Benzoyl(4-octyloxy)}-[Orn(4R-OH,5R-OH)]T[Hyp][hTyr(3S-OH,4S-OH)]T[Pro(3S-OH,4S-Me)]; lactam 1-C)
% Inhibition, (1,3)β-Glucan Synthase ((1,3)β-Glucan Synthase): 51%

Nc1nc(=O)[nH]cc1F [5-fluorocytosine]
Fungicidal Concentration (Candida albicans): 1563 ng/mL | MIC90 (Candida albicans; 24 h, read-out: MIC90 24 h): 0.098 µg/mL (≈ 0.759 µM) | MIC90 (Candida albicans; 48 h, read-out: MIC90 48 h): 0.195 µg/mL (≈ 1.51 µM)

O=C(O)CCCCC/C=C\C#CC#Cc1ccco1 [(Z)-12-(furan-2-yl)dodeca-7-en-9,11-diynoic acid]
IC50 (S. cerevisiae 2229-5C): ~50 µg/mL (≈ 195 µM) | IC50 (C. albicans SC5314 [4]): 50 µg/mL (≈ 195 µM) | IC50 (C. albicans DSY1024): 1.8 µg/mL (≈ 7.02 µM) | IC50 (S. cerevisiae AD1-9): ~6.25 µg/mL (≈ 24.4 µM)

CN(C/C=C/C#CC(C)(C)C)Cc1cccc2ccccc12 [Terbinafine, reference compound]
MIC (M. gypseum): 0.004 µg/mL (≈ 0.0137 µM) | MIC (T. rubrum): 0.002 µg/mL (≈ 0.00686 µM) | MIC (M. gallinae): 0.008 µg/mL (≈ 0.0275 µM) | net biosynthesis of ergosterol (13C-acetate incorporation) (ergosterol biosynthesis): inhibited the incorporation of acetate into ergosterol | MIC (Epidermophyton floccosum): 0.015 µg/mL (≈ 0.0515 µM) | MIC (M. vanbreuseghemii): 0.015 µg/mL (≈ 0.0515 µM) | MIC (Trichophyton tonsurans): 0.008 µg/mL (≈ 0.0275 µM) | MIC (Microsporum canis): 0.015 µg/mL (≈ 0.0515 µM) | MIC (T. terrestre): 0.008 µg/mL (≈ 0.0275 µM) | MIC (T. mentagrophytes): 0.008 µg/mL (≈ 0.0275 µM) | MIC range against all dermatophyte strains (all dermatophyte strains): 0.002 to 4 µg/mL | MIC [5]: 4 µg/mL (≈ 13.7 µM) | MIC (M. cookie): 0.008 µg/mL (≈ 0.0275 µM)

C[C@@H]([C@H](N)C(=O)N[C@H](C(=O)O)[C@H]1O[C@@H](n2ccc(=O)[nH]c2=O)[C@H](O)[C@@H]1O)[C@H](O)c1ccc(O)cn1 [Nikkomycin Z, reference compound]
% Inhibition, Chitin Synthase (Chitin Synthase): 61%

CCOC(=O)CCCCCCC/C=C\C#CC#Cc1ccco1 [(Z)-ethyl 14-(furan-2-yl)tetradeca-9-en-11,13-diynoate]
IC50 (S. cerevisiae 2229-5C): 8.9 µg/mL (≈ 28.5 µM) | IC50 (C. albicans SC5314 [4]): 9 µg/mL (≈ 28.8 µM) | IC50 (S. cerevisiae AD1-9): 0.7 µg/mL (≈ 2.24 µM)

O=C(O)CCCCCCC/C=C/C#CC#Cc1ccco1 [VIII″, (E)-14-(furan-2-yl)tetradeca-9-en-11,13-diynoic acid]
MIC (C. albicans SC5314 [1]): 0.15 µg/mL (≈ 0.528 µM) | IC50 (S. cerevisiae 2229-5C): 2.7 µg/mL (≈ 9.5 µM) | IC50 (C. albicans SC5314 [4]): 3 µg/mL (≈ 10.6 µM) | IC50 (C. albicans DSY1024): 0.004 µg/mL (≈ 0.0141 µM) | IC50 (S. cerevisiae AD1-9): 0.4 µg/mL (≈ 1.41 µM)

CCCCCCCC/C=C\CCCCCCCC(=O)O [oleic acid, reference compound]
decrease of the expression level of OLE1 (OLE1): about 6 fold | Doubling time (S. cerevisiae): 2.0 h | Doubling time (S. cerevisiae; sodium salt): 2 h

O=C(O)CCCCCC/C=C\C#CC#Cc1ccco1 [(Z)-13-(furan-2-yl)trideca-8-en-10,12-diynoic acid]
IC50 (S. cerevisiae 2229-5C): > 200 µg/mL | value in brackets after the IC50 bound (not explained) (S. cerevisiae 2229-5C): 25% | IC50 (C. albicans SC5314 [4]): > 200 µg/mL | IC50 (C. albicans DSY1024): 0.5 µg/mL (≈ 1.85 µM) | IC50 (S. cerevisiae AD1-9): ~50 µg/mL (≈ 185 µM)

CC(=O)N1CCN(c2ccc(OCC3COC(Cn4ccnc4)(c4ccc(Cl)cc4Cl)O3)cc2)CC1 (stereo not drawn) [Ketoconazole]
Fungicidal Concentration (Candida albicans): >800,000 ng/ml | MIC90 (Candida albicans; 24 h, read-out: MIC90 24 h): 50 µg/mL (≈ 94.1 µM) | MIC90 (Candida albicans; 48 h, read-out: MIC90 48 h): > 800 µg/mL

Cc1cc(C#CC#C/C=C\CCCCCCCC(=O)O)oc1C [VI″, (Z)-14-(4,5-dimethylfuran-2-yl)tetradeca-9-en-11,13-diynoic acid]
MIC (C. albicans SC5314 [1]): > 10.2 µg/mL | MIC [2]: > 10.2 µg/mL | MIC (C. albicans ATCC-24433): > 10.2 µg/mL | MIC [3]: > 10.2 µg/mL | MIC (C. glabrata ATCC-90030): > 10.2 µg/mL | MIC (C. krusei ATCC-6258): > 10.2 µg/mL | MIC (C. albicans ATCC-90028): > 10.2 µg/mL | MIC (C. tropicalis ATCC-750): > 10.2 µg/mL

COC(=O)CCCCCCC/C=C\C#CC#Cc1ccco1 [(Z)-methyl 14-(furan-2-yl)tetradeca-9-en-11,13-diynoate]
IC50 (S. cerevisiae 2229-5C): > 0.4 µg/mL | value in brackets after the IC50 bound (not explained) (S. cerevisiae 2229-5C): 4% | IC50 (C. albicans SC5314 [4]): 0.4 µg/mL (≈ 1.34 µM) | IC50 (C. albicans DSY1024): 0.19 µg/mL (≈ 0.637 µM) | IC50 (S. cerevisiae AD1-9): > 0.4 µg/mL | value in brackets after the IC50 bound (not explained) (S. cerevisiae AD1-9; at the bound concentration): 6%

C[C@@H]1C[C@@H]([C@H](O)CC2CC(=O)NC(=O)C2)C(=O)[C@@H](C)C1 [Cycloheximide]
Fungicidal Concentration (Candida albicans): 12,800,000 ng/ml | MIC90 (Candida albicans; 24 h, read-out: MIC90 24 h): 1600 µg/mL (≈ 5690 µM) | MIC90 (Candida albicans; 48 h, read-out: MIC90 48 h): 12800 µg/mL (≈ 45500 µM)
